For one compound, KD results are on record in publication PMC6886665 (2019).

In the assay the test system is truncated vancomycin aptamer (four base pairs removed from the stem), E-AB sensor (DNA, aptamer) CGAGGGTACCGCAATAGTACTTATTGTTCGCCTATTGTGGGTCGG
In words: electrochemical aptamer-based sensor, square-wave voltammetry. The following applies: undiluted flowing whole blood; surface-attached aptamer; apparent.

`CN[C@H](CC(C)C)C(=O)N[C@H]1C(=O)N[C@@H](CC(N)=O)C(=O)N[C@H]2C(=O)N[C@H]3C(=O)N[C@H](C(=O)N[C@H](C(=O)O)c4cc(O)cc(O)c4-c4cc3ccc4O)[C@H](O)c3ccc(c(Cl)c3)Oc3cc2cc(c3O[C@@H]2O[C@H](CO)[C@@H](O)[C@H](O)[C@H]2O[C@H]2C[C@](C)(N)[C@H](O)[C@H](C)O2)Oc2ccc(cc2Cl)[C@H]1O`: the KD worked out at 45 µM.
